Values quoted from earlier work, collected in patent publication US6548645B1, “Immunoassay for 2-oxo-3-hydroxy LSD” (Microgenetics Corporation, priority 1999, dated 2003).

What was measured:
[1] = tested on: antibodies generated by LSD immunogens (LSD analogs derivatized through N-1 or N-6 conjugated to a carrier); conditions: molar ratio; relative to LSD; antibodies of Salamone et al., Bioconjugate Chem 8:896-905 (1997)
[2] = man; calculated
[3] = doses as low as

| Structure (SMILES) | cross-reactivity [1] | plasma half-life [2] | oral dose causing central nervous system disturbances (hallucinations, distortions in sensory perception, mood changes) [3] |
| --- | --- | --- | --- |
| CCN(CC)C(=O)C1C=C2c3cccc4c3C(O)(CC2N(C)C1)C(=O)N4 (stereo not drawn) [2PATENT -oxo-3-hydroxy-LSD, 2-oxo-3-hydroxy-LSD] | 30-45% | – | – |
| CCN(CC)C(=O)[C@@H]1C=C2c3cccc4[nH]cc(c34)C[C@H]2N(C)C1 [LSD] | – | about 3 hours | ≥ 25 µg |
